Assay results published in patent US20050112128A1, “Inhibition of protein kinase c-mu (PKD) as a treatment for cardiac hypertrophy and heart failure” (Myogen, Inc. and Board of Regents, The University of Texas …, priority 2003, published 2005).
Entries after “also recorded” stand apart in the source; their conditions may differ. Where no end group is shown, it is not given here.

What was measured:
[1] = tested on: nuclear export of GFP-HDAC5 in NRVMs; experiment: Quantitative HDAC5 nuclear export assay in NRVMs (Cellomics High Content Imaging System); assay type: cell-based, rat; conditions: 2 hrs; for block of PE-induced nuclear export of HDAC5: PE 20 μM, KN93, wortmannin, staurosporine 1 mM, U1026, HA1077, Y-27632, DAG Kinase inhibitor II, SB216763, Bis I 10 mM, rapamycin 30 ng/ml, Gö6983 10 μM
PKD = target: T1, PKD (Homo sapiens, UniProt Q15139); conditions: literature (Van Lint 2002; Gschwendt 1996; Haworth); cited from earlier work
T1 sequence (Q15139 1-912): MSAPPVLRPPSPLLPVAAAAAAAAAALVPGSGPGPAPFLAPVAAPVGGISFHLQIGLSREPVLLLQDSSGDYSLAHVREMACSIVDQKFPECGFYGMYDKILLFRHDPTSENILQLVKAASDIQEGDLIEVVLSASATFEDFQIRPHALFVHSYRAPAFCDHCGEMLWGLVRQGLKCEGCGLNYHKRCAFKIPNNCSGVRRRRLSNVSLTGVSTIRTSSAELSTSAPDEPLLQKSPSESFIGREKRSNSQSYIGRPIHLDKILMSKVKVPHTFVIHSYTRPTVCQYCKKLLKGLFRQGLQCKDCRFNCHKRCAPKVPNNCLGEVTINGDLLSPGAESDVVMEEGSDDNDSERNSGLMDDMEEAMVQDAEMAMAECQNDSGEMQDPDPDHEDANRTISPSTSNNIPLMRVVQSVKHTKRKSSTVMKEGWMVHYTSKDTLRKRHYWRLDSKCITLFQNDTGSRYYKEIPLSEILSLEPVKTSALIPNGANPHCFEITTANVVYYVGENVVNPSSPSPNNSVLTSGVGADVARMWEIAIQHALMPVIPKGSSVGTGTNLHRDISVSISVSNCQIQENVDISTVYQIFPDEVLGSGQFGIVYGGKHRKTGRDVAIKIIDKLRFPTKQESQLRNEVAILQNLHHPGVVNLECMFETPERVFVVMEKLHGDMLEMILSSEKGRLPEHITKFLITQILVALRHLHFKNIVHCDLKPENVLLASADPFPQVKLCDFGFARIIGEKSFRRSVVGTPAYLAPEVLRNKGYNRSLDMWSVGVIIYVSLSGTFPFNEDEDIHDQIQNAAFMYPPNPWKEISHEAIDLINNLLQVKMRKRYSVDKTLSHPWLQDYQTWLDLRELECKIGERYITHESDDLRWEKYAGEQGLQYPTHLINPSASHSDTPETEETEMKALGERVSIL

[2] = tested on: nuclear export of HDAC5 in COS cells; experiment: GFP-HDAC5 nuclear export in transfected COS cells (fluorescence microscopy); assay type: cell-based; conditions: COS cells transfected with GFP-HDAC5; 60 min after addition of compounds
Experimental: FIGS. 1A-D—PKC-dependent nuclear export of HDAC5. FIG. 1A. COS cells were cultured on 6-well dishes, transfected with a GFP-HDAC5 expression vector (1 μg) and stimulated with the indicated compounds, as described in Materials and Methods. Sixty minutes after addition of compounds, GFP-HDAC5 distribution was determined by fluorescence microscopy. […] FIG. 1B. COS cells were transfected with expression vectors encoding FLAG-tagged versions of either HDAC5 or an HDAC5 mutant harboring alanines in place of serines 259 and 498 (HDAC5 S259/498A) (1 μg each). Cells were stimulated with PMA for 60 min and HDAC5 distribution was determined by indirect immunofluorescence with anti-FLAG primary antibody and fluorecein-conjugated secondary antibody. HDAC5 259/498A is refractory to PMA stimulation. FIG. 1C. COS cells transfected with GFPHDAC5 encoding expression vector (1 μg) and stimulated with PMA for the indicated times. FIG. 1D. COS cells were transiently transfected with expression vectors encoding FLAG-tagged versions of HDAC5 or HDAC5 S259/498A (1 μg each). Cells were pretreated with the PKC inhibitor bisindolylmaleimide (Bis I; 10 μM) for 30 minutes and stimulated with PMA for 30 min, as indicated. Association of FLAG-HDAC5 with endogenous 14-3-3 was detected by sequential immunoprecipitation and immunoblotting.
Cell culture and transfection assays. COS cells were maintained in DMEM with FBS (10%), L-glutamine (2 mM), and penicillin-streptomycin. Transfection of COS cells was performed with Fugene 6 (Roche Molecular Biochemicals) according to manufacturer's instructions. For HDAC localization experiments, cells were treated 16-24 hours after transfection with PMA (100 nM), ionomycin […], 8-Br-cAMP (1 mM), pCPT-GMP (1 mM), or anisomycin (1 mM). Where noted, specific protein kinase inhibitors were added 30 min prior to the addition of any chemical stimulus. GFP-HDAC5 was visualized with standard fluorescent microscopic techniques. For indirect immunofluorescence of FLAG-HDAC5, COS cells were seeded on glass coverslips, transfected, and treated as above. After specific treatment, cells were fixed with buffered formalin (10%) and stained in PBS containing BSA (3%) and Nonidet P-40 (0.1%). Flag M2 antibody (Sigma) was used at a concentration of 1:200. Secondary fluoresceine-conjugated antibody (Vector Laboratories) was also used at a concentration of 1:200. Staining of cardiomyocytes for sarcomeres and atrial natriuretic factor (ANF) was performed by indirect immunofluorescence detection as above with antibodies directed against sarcomeric α-actinin (Sigma) and ANF (Peninsula Laboratories), respectively.

HDAC5-bound PKD = assay type: biochemical, rat; conditions: NRVMs pre-treated 30 min with 10 μM inhibitor (pre-Bis I)
[3] = NRVMs, inhibitor pre-treatment 30 min

O=c1c2ccccc2[nH]c(=S)n1CCN1CCC(=C(c2ccc(F)cc2)c2ccc(F)cc2)CC1 [DAGK inhibitor II]
block of PE-induced nuclear export of HDAC5 [1, 3]: did not significantly affect PE-induced nuclear export of HDAC5

O=S(=O)(c1cccc2cnccc12)N1CCCNCC1 [HA1077]
block of PE-induced nuclear export of HDAC5 [1, 3]: did not significantly affect PE-induced nuclear export of HDAC5

Endothelin-1 (CSCSSLMDKECVYFCHLDIIW; ends and bridges not checked; cysteine pairing not given here; UniProt P05305 53-73, looked up) [ET-1, hypertrophic agonist purchased from Sigma]
agonist-triggered nuclear export of HDAC5 in cardiomyocytes ([1]; NRVMs infected with Ad-GFP-HDAC5, PE 0.1 to 20 μM, ET-1 50 nM, FBS 10%): effectively promote nuclear export of HDAC5

CN[C@@H]1C[C@H]2O[C@@](C)([C@@H]1OC)n1c3ccccc3c3c4c(c5c6ccccc6n2c5c31)C(=O)NC4 [staurosporine]
block of PE-induced nuclear export of HDAC5 [1, 3]: effective in blocking PE-dependent export of HDAC5; also recorded: effective in blocking HDAC5 nuclear export

Cn1cc(C2=C(c3cn(CCCSC(=N)N)c4ccccc34)C(=O)NC2=O)c2ccccc21 [Ro 31-8220]
sensitivity of PKD to the inhibitor (PKD): insensitive

COc1ccc(C[C@H]2NC[C@H](O)[C@H]2OC(C)=O)cc1 [anisomycin]
stimulation of nuclear export of GFP-HDAC5 [2]: only ionomycin and PMA stimulated nuclear export

CN(C)CCCn1cc(C2=C(c3c[nH]c4ccccc34)C(=O)NC2=O)c2ccccc21 [Bis I, bisindolylmaleimide I]
sensitivity of PKD to the inhibitor (PKD): not to Bis I or Gö6983 | block of HDAC5 phosphorylation, inhibitor given to cells before PMA (HDAC5-bound PKD): Phosphorylation of HDAC5 was blocked | block of ET-1-induced nuclear export of HDAC5 ([1]; NRVMs, ET-1 50 nM, inhibitor pre-treatment 30 min): had no effect | block of FBS-induced nuclear export of HDAC5 ([1]; NRVMs, FBS 10%, inhibitor pre-treatment 30 min): had no effect | block of PE-induced nuclear export of HDAC5 [1, 3]: effective in blocking PE-dependent export of HDAC5; also recorded: inhibitory effect on PE-dependent HDAC5 nuclear export; also recorded: effective in blocking HDAC5 nuclear export

Nc1ncnc2c1nc(Br)n2[C@@H]1O[C@@H]2COP(=O)(O)O[C@H]2[C@H]1O [8-Br-cAMP]
stimulation of nuclear export of GFP-HDAC5 [2]: only ionomycin and PMA stimulated nuclear export

N#CC(=C(/N)Sc1ccccc1N)/C(C#N)=C(/N)Sc1ccccc1N [U1026]
block of PE-induced nuclear export of HDAC5 [1, 3]: did not significantly affect PE-induced nuclear export of HDAC5

C[C@H](CCC(=O)O)C[C@H](C)C[C@H](C)C(=O)/C=C(\O)[C@H](C)C[C@H](C)C/C=C/[C@@H](C)[C@@H](O)[C@@H](C)[C@@H](O)C[C@@H]1CC[C@@](C)([C@H]2CC[C@@](C)([C@@H](C)O)O2)O1 [ionomycin]
stimulation of nuclear export of GFP-HDAC5 [2]: partial response; also recorded: stimulated nuclear export of GFP-HDAC5

COc1ccc2c(c1)c(C1=C(c3c[nH]c4ccccc34)C(=O)NC1=O)cn2CCCN(C)C [Go6983]
sensitivity of PKD to the inhibitor (PKD): not to Bis I or Gö6983 | block of PE-induced nuclear export of HDAC5 [1, 3]: inhibiting HDAC5 nuclear export in response to PE

C[C@@H](N)[C@H]1CC[C@H](C(=O)Nc2ccncc2)CC1 [Y-27632]
block of PE-induced nuclear export of HDAC5 [1, 3]: did not significantly affect PE-induced nuclear export of HDAC5

COc1ccc(S(=O)(=O)N(CCO)c2ccccc2CN(C)C/C=C/c2ccc(Cl)cc2)cc1 [KN93]
block of PE-induced nuclear export of HDAC5 [1, 3]: did not significantly affect PE-induced nuclear export of HDAC5

Nc1nc2c(nc(Sc3ccc(Cl)cc3)n2[C@@H]2O[C@@H]3COP(=O)(O)O[C@H]3[C@H]2O)c(=O)[nH]1 [pCPT-GMP]
stimulation of nuclear export of GFP-HDAC5 [2]: only ionomycin and PMA stimulated nuclear export

Cn1cc(C2=C(c3ccc(Cl)cc3Cl)C(=O)NC2=O)c2ccccc21 [SB216763]
block of PE-induced nuclear export of HDAC5 [1, 3]: did not significantly affect PE-induced nuclear export of HDAC5

CN(C)CCCn1cc(C2=C(c3c[nH]c4ccccc34)C(=O)NC2=O)c2ccccc21 [GF I]
sensitivity of PKD to the inhibitor (PKD): insensitive
